Test results taken from patent US20240174662A1, “SMALL MOLECULE INHIBITORS OF SALT INDUCIBLE KINASES” (Janssen Biotech, Inc., priority 2021, published 2024).

Target: SIK2 (Homo sapiens (Human), UniProt Q9H0K1)
Experiment: SIK2 Enzymatic Assay Version 2 (High ATP)
Type: biochemical
Details: 3 mM ATP and 200 μM HDAC5tide final, ADP-Glo Max luminescence
Protocol: All steps were performed at room temperature. Compounds were pre-plated onto an assay plate using an Echo acoustic dispenser (Labcyte, […] or […]) at 80 nL per well. Enzyme prepared in assay buffer at 6 nM (2× final concentration) was added at 4 μL per well using the Multidrop Combi (Thermo Fisher-used for all additions in this assay) to the assay plate, spun for 1 min at 1000 rpm (Allegra 6KR Beckman Coulter centrifuge), and incubated with compound for 30 minutes. […] ADP-Glo Max Reagent (prepared and aliquoted as per manufacturer instructions) was then added at 8 μL per well, spun and incubated for 2 hours. ADP-Glo Max Detection (prepared and aliquoted as per manufacturer instructions) was added at 8 μL per well to the assay plate, which was spun and incubated for 1 hour. The plate was then read on the Pherastar (BMG Labtech) using a luminescence read. Gain was set between 2200-2500.

Chain of SIK2 (Q9H0K1 whole entry, species assumed): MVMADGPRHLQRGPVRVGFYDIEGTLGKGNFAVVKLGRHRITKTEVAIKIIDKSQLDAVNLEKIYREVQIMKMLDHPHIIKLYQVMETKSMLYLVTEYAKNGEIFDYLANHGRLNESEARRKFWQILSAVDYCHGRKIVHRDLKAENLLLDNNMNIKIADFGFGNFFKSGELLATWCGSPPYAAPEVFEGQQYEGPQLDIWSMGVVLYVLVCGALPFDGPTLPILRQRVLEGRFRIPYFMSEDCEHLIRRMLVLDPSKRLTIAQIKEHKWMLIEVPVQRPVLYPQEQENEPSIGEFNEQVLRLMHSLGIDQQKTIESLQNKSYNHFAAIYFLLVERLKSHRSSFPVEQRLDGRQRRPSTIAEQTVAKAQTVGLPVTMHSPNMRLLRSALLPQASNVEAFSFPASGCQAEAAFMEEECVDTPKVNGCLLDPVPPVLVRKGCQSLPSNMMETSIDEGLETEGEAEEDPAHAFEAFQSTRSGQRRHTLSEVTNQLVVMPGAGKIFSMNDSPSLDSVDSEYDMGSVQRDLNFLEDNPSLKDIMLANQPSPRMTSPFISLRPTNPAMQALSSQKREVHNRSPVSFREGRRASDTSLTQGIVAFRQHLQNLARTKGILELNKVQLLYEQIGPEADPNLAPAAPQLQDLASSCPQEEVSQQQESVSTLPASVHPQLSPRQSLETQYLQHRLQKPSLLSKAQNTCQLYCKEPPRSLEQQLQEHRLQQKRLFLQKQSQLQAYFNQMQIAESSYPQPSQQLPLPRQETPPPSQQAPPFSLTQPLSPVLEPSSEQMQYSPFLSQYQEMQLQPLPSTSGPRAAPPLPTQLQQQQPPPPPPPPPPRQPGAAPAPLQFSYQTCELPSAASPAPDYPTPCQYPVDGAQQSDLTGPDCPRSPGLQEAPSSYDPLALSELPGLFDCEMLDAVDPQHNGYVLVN

Structure (SMILES)	IC50 [nM]
Cc1onc(OC[C@H]2CCN2CC#N)c1-c1ccn2nc(NC(=O)C3CC3)cc2c1 [Example 213, N-[5-[3-[[(2R)-1-(cyanomethyl)azetidin-2-yl]methoxy]-5-methyl-isoxazol-4-yl]pyrazolo[1,5-a]pyridin-2-yl]cyclopropanecarboxamide]	15.3
Cc1cc(Nc2cc3cc(-c4c(OC[C@@H](O)C5(C)CC5)cnn4C)ccn3n2)nc(C)n1 (single isomer, unassigned) [Example 357, *S-1-methylcyclopropyl-2-[5-[2-[(2,6-dimethylpyrimidin-4-yl)amino]pyrazolo[1,5-a]pyridin-5-yl]-1-methyl-pyrazol-4-yl]oxy-ethanol]	61.9
Cn1ncc(OC[C@H]2CCN2)c1-c1ccn2nc(Nc3ccc(C4CC4)nn3)cc2c1 [Example 394, 5-[4-[[(2R)-azetidin-2-yl]methoxy]-2-methyl-pyrazol-3-yl]-N-(6-cyclopropylpyridazin-3-yl)pyrazolo[1,5-a]pyridin-2-amine]	103
Cn1ncc(COC2CNC2)c1-c1ccn2nc(NC(=O)C3CC3)cc2c1 [Example 360, N-[5-[4-(azetidin-3-yloxymethyl)-2-methyl-pyrazol-3-yl]pyrazolo[1,5-a]pyridin-2-yl]cyclopropanecarboxamide]	32.8
Cn1ncc(OC[C@@]23CN[C@@H](CO2)C3)c1-c1ccn2nc(NC(=O)C3CC3)cc2c1 [Example 234, N-[5-[2-methyl-4-[[(1R,4R)-5-oxa-2-azabicyclo[2.2.1]heptan-4-yl]methoxy]pyrazol-3-yl]pyrazolo[1,5-a]pyridin-2-yl]cyclopropanecarboxamide]	1.1
C[C@@H]1[C@@H](COc2cnn(C)c2-c2ccn3nc(NC(=O)C4CC4)cc3c2)CN1C (single isomer, unassigned) [Example 41, trans-N-(5-(4-(((2*R,3*S)-1,2-dimethylazetidin-3-yl)methoxy)-1-methyl-1H-pyrazol-5-yl)pyrazolo[1,5-a]pyridin-2-yl)cyclopropanecarboxamide]	14.6
CCN1CC[C@@H]1COc1cnn(C(F)F)c1-c1ccn2nc(Nc3cc(C)ncn3)cc2c1 [Example 478, 5-[2-(difluoromethyl)-4-[[(2R)-1-ethylazetidin-2-yl]methoxy]pyrazol-3-yl]-N-(6-methylpyrimidin-4-yl)pyrazolo[1,5-a]pyridin-2-amine]	3
CN1CC[C@@H]1COc1cnn(C)c1-c1ccn2nc(Nc3ccc4cnccc4n3)cc2c1 [Example 125, N-[5-[2-methyl-4-[[(2R)-1-methylazetidin-2-yl]methoxy]pyrazol-3-yl]pyrazolo[1,5-a]pyridin-2-yl]-1,6-naphthyridin-2-amine]	1.3
CN1CC[C@H](Oc2cnn(C)c2-c2ccc3nc(NC(=O)C4CC4)cn3c2)C1 [Example 472, N-[6-[2-methyl-4-[(3S)-1-methylpyrrolidin-3-yl]oxy-pyrazol-3-yl]imidazo[1,2-a]pyridin-2-yl]cyclopropanecarboxamide]	106
Cc1nccc(Nc2cc3cc(-c4c(OC[C@H]5CCN5C)cnn4C)ccn3n2)n1 [Example 64, 5-[2-methyl-4-[[(2R)-1-methylazetidin-2-yl]methoxy]pyrazol-3-yl]-N-(2-methylpyrimidin-4-yl)pyrazolo[1,5-a]pyridin-2-amine]	2
Cc1onc(OC[C@H]2CNCC(C)(C)O2)c1-c1ccn2nc(NC(=O)C3CC3)cc2c1 [Example 86, N-[5-[3-[[(2R)-6,6-dimethylmorpholin-2-yl]methoxy]-5-methyl-isoxazol-4-yl]pyrazolo[1,5-a]pyridin-2-yl]cyclopropanecarboxamide]	1.3
CN1CCCC[C@H]1COc1cnn(C)c1-c1ccn2nc(NC(=O)C3CC3)cc2c1 [Example 505]	1380
Cc1cc(Nc2cc3cc(-c4c(OC[C@]5(F)CCNC5)cnn4C(F)F)ccn3n2)nc(C)n1 (single isomer, unassigned) [Example 263, (*S)-5-(1-(difluoromethyl)-4-((3-fluoropyrrolidin-3-yl)methoxy)-1H-pyrazol-5-yl)-N-(2,6-dimethylpyrimidin-4-yl)pyrazolo[1,5-a]pyridin-2-amine]	40.2
